Earlier results in patent US20070098750A1, “PESTICIDAL COMPOSITIONS CONTAINING ISOPROPYL MYRISTATE AND ANALOGS OF SAME AS A SYNERGIST FOR PLANT ESSENTIAL OILS” (EcoSmart Technologies, Inc., priority 2005, published 2007).

Structure (SMILES): CCCCOCCOCCOCc1cc2c(cc1CCC)OCO2 [PBO, piperonyl butoxide]
- Chronic toxicity finding (even at the lowest doses, 30 mg/kg/day): increased liver weights
- Carcinogenicity finding in animal studies (even treatments as low as 1.2%): hepatocellular carcinomas
